A short description of data set [1]: Single-dose, 2-sequence, 2-period crossover pharmacokinetic/bioequivalence study, fasting oral administration, healthy Chinese subjects (also by CYP2C19 phenotype and gender). Type of data set: in vivo. As to conditions: human, plasma, mean ± SD. Here is the method: Forty subjects were randomly divided into two groups, with 20 patients in each group. […] The subjects in each group fasted after 21:00 the night before administration. […] The blood samples were centrifuged at 1700 g (4 °C) for 10 min within 1 h of collection. The centrifuged plasma was immediately aliquoted into 2 tubes with corresponding labels (1 for testing, 1 for backup, the volume of plasma in each tube should not be less than 500 µL) and stored at […] until analysis. The total time from whole blood collection to centrifugation to separate plasma and then stored in […] refrigerator should not exceed 2 h.
The sample pretreatment method was the protein precipitation method.
Terminal elimination rate constant λz and the apparent terminal elimination half-life (T1/2) were also needed. AUC0–∞ (the AUC from time 0 to infinity) used the formula: AUC0–∞ = AUC0–t + Ct/λ(T1/2 = 0.693/λz) to calculate.
SAS 9.4 software was used for statistical analysis.

For data set [2] the following is noted: cited from earlier work.
For data set [3] the following is noted: Pakistani, cited from earlier work.

Where two headings read alike, the source gives them in different places.

We go through 1 compound from article PMC9859815 (Scientific Reports, 2023).

With `COc1ccc2[nH]c([S+]([O-])Cc3ncc(C)c(OC)c3C)nc2c1` (centres unmarked) [omeprazole], in data set [1] (CYP2C19 EM (N = 12)), the exposure AUC(0-t) (in general, exposure summed from dosing to a finite time, without extrapolation to infinity) was 553 ± 391 ng·h/mL. Moreover, in data set [1] (CYP2C19 PM (N = 4)), the half-life (as a rule, the time in which the quantity being followed falls by half) was 2.48 ± 0.24 h. Besides, the Cmax (usually the highest concentration seen after dosing) in data set [2] (CYP2C19 EM, Caucasians) was 285 ± 82.9 ng/mL; in data set [2] (CYP2C19 EM, Japanese) it was 251.1 ± 46.2 ng/mL; in data set [2] (CYP2C19 EM, West Asians), 152.4 ± 9.94 ng/mL; in data set [2] (CYP2C19 PM, East Asians (so in the source)), 538.6 ± 33.5 ng/mL; in data set [2] (CYP2C19 PM, Japanese), 1070.2 ± 185.3 ng/mL; in data set [3] (females), 2913 ± 610 ng/mL. In addition, the Cmax in data set [3] (males) is 2006 ± 980 ng/mL. The T1/2 is reported as 0.71 ± 0.1 h in data set [2] (CYP2C19 EM, Caucasians); 0.9 ± 0.01 h in data set [2] (CYP2C19 EM, West Asians); 2.68 ± 0.3 h in data set [2] (CYP2C19 PM, Caucasians); 2.41 ± 0.15 h in data set [2] (CYP2C19 PM, Japanese); 2.42 ± 0.18 h in data set [2] (CYP2C19 PM, West Asians). For the same compound, the “AUC0–t” value in data set [2] (CYP2C19 EM, Japanese) is 618.3 ± 141.9 ng·h/mL; in data set [2] (CYP2C19 EM, Korean), 713.49 ± 555.56 ng·h/mL; in data set [2] (CYP2C19 EM, West Asian), 250.5 ± 16.1 ng·h/mL; in data set [2] (CYP2C19 EM, Whites), 635.5 ± 259.7 ng·h/mL; in data set [3] (females), 8740 ± 2230 ng·h/mL; in data set [3] (males) it was 6670 ± 4320 ng·h/mL.
